Measurements taken from patent US20250230193A1, “CYCLIC COMPOUND HAVING SELECTIVE KRAS INHIBITORY EFFECT ON HRAS AND NRAS” (CHUGAI SEIYAKU KABUSHIKI KAISHA, priority 2022, published 2025).
Where a SMILES comes first, the peptide text is derived from it. Bridges are numbered along the chain shown (N, C = ends). [ ]: non-standard residue; d: D form. The star is where a group is joined. hPhe(3-Cl-4-CF3) = N[C@@H](CCc1ccc(C(F)(F)F)c(Cl)c1)C(=O)O; NPrPhe(4-CF3) = CCCN[C@@H](Cc1ccc(C(F)(F)F)cc1)C(=O)O; NMeGly(cPent) = CN[C@H](C(=O)O)C1CCCC1; Pro(4,4-F2) = O=C(O)[C@@H]1CC(F)(F)CN1; NMeL = CN[C@@H](CC(C)C)C(=O)O; Morpholide = C1CN(*)CCO1; Ac5c = NC1(C(=O)O)CCCC1; Aze = O=C(O)[C@@H]1CCN1; Ac4c = NC1(C(=O)O)CCC1; Sar = CNCC(=O)O

Tests used:
[1] = biological target: GDP-bound HRAS wild-type protein (Homo sapiens, UniProt P01112); assay: Binding to HRAS by surface plasmon resonance (SPR), Single Cycle Kinetics; details: SPR
GDP-bound HRAS wild-type protein, sequence (P01112 whole entry): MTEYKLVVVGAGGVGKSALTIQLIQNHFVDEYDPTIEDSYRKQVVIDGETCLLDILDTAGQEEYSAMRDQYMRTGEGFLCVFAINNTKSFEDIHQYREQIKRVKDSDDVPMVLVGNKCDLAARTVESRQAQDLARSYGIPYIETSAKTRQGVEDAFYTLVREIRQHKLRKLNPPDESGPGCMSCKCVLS

[2] = biological target: GDP-bound NRAS wild-type protein (Homo sapiens, UniProt P01111); assay: Binding to NRAS by surface plasmon resonance (SPR), Single Cycle Kinetics; details: SPR
GDP-bound NRAS wild-type protein, sequence (P01111 whole entry): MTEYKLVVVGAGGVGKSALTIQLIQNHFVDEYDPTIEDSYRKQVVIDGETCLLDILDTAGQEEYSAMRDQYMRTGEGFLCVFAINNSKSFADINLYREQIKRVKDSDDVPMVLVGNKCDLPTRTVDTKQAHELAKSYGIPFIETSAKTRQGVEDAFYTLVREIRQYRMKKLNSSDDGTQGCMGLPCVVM

CC[C@H](C)[C@@H]1NC(=O)[C@H](CC(F)(F)F)N(C)C(=O)C[C@@H](C(=O)N2CCOCC2)N(C)C(=O)[C@H](C2CCCC2)N(C)C(=O)C2(CCCC2)NC(=O)[C@@H]2CCCN2C(=O)[C@H](CCc2cc(F)c(C(F)(F)F)c(F)c2)NC(=O)CN(C)C(=O)[C@H](Cc2ccc(C(F)(F)F)cc2)N2CCCC[C@@H](C2=O)N(C)C(=O)CN(C)C1=O [PP0594]
HRAS/KRAS (ratio of KD value with respect to GDP-bound HRAS wild-type protein to KD value with respect to KRAS) [1]: B (a compound having 3 or more and less than 10 is denoted as B) | NRAS/KRAS (ratio of KD value with respect to GDP-bound NRAS wild-type protein to KD value with respect to KRAS) [2]: C (A compound having a KD ratio of 0.1 or more and less than 3 is denoted as C)

CC[C@H](C)[C@@H]1NC(=O)[C@H](CC(C)C)N(C)C(=O)C[C@@H](C(=O)N2C[C@@H](C)O[C@@H](C)C2)N(C)C(=O)[C@H](C2CCCC2)N(C)C(=O)C2(CCCC2)NC(=O)[C@@H]2CCCN2C(=O)[C@H](CCc2ccc(C(F)(F)F)c(Cl)c2)NC(=O)CN(C)C(=O)[C@H](Cc2ccc(F)cc2)N2CCCCC[C@@H](C2=O)N(C)C(=O)CN(C)C1=O [PP1151]
HRAS/KRAS (ratio of KD value with respect to HRAS to KD value with respect to KRAS) ([1]; KD ratio, GDP-bound HRAS wild-type vs GDP-bound KRAS wild-type): B (a compound having 3 or more and less than 10 is denoted as B) | NRAS/KRAS (ratio of KD value with respect to NRAS to KD value with respect to KRAS) ([2]; KD ratio, GDP-bound NRAS wild-type vs GDP-bound KRAS wild-type): B (a compound having 3 or more and less than 10 is denoted as B)

CCC[C@H]1C(=O)N[C@@H](C2CCCCC2)C(=O)N(C)CC(=O)N(C)[C@H]2C/C=C\CCN(C2=O)[C@@H](Cc2ccc(C(F)(F)F)cc2)C(=O)N(C)CC(=O)N[C@@H](CCc2ccc(C(F)(F)F)c(Cl)c2)C(=O)N2C[C@H](OCC)C[C@H]2C(=O)NC2(CC(C)(C)C2)C(=O)N(C)[C@@H](CC(C)C)C(=O)N(C)[C@H](C(=O)N(C)C)CC(=O)N1C [PP3017]
HRAS/KRAS (ratio of KD value with respect to GDP-bound HRAS wild-type protein to KD value with respect to KRAS) ([1]; GDP-bound wild-type proteins): A (a compound having 10 or more and less than 20 is denoted as A) | NRAS/KRAS (ratio of KD value with respect to GDP-bound NRAS wild-type protein to KD value with respect to KRAS) ([2]; GDP-bound wild-type proteins): AA (a compound having 20 or more is denoted as AA)

CCO[C@@H]1C[C@H]2C(=O)N(C)C3(CC(C)(C)C3)C(=O)N(C)[C@@H](C3CCCC3)C(=O)N(C)[C@H](C(=O)N(C)C)CC(=O)N(C)[C@H]3CCC/C=C/c4ccc(cc4)C[C@@H](C(=O)N(C)CC(=O)N[C@@H](CCc4ccc(Cl)c(Cl)c4)C(=O)N2C1)N1CC/C=C\C[C@@H](C1=O)N(C)C(=O)CN(C1CC1)C(=O)[C@H]([C@@H](C)CC)NC3=O [PP3061]
HRAS/KRAS (ratio of KD value with respect to GDP-bound HRAS wild-type protein to KD value with respect to KRAS) ([1]; GDP-bound wild-type proteins): A (a compound having 10 or more and less than 20 is denoted as A) | NRAS/KRAS (ratio of KD value with respect to GDP-bound NRAS wild-type protein to KD value with respect to KRAS) ([2]; GDP-bound wild-type proteins): A (a compound having 10 or more and less than 20 is denoted as A)

CCCN1C(=O)[C@@H]2CCN2C(=O)CN(C)C(=O)[C@H]([C@@H](C)CC)NC(=O)[C@H](CC(C)C)N(C)C(=O)C[C@@H](C(=O)N(C)C)NC(=O)[C@H](C2CCCC2)N(C)C(=O)C2(CCCC2)NC(=O)[C@@H]2CC(F)(F)CN2C(=O)[C@H](CCc2ccc(C(F)(F)F)c(Cl)c2)NC(=O)CN(C)C(=O)[C@@H]1Cc1ccc(C(F)(F)F)cc1 [PP0387] ([NMeL]I[Sar][Aze][NPrPhe(4-CF3)][Sar][hPhe(3-Cl-4-CF3)][Pro(4,4-F2)][Ac5c][NMeGly(cPent)]D-NMe2; lactam N-11)
HRAS/KRAS (ratio of KD for GDP-bound HRAS wild-type to KD for KRAS) [1]: B (a compound having 3 or more and less than 10 is denoted as B) | NRAS/KRAS (ratio of KD for GDP-bound NRAS wild-type to KD for KRAS) [2]: C (A compound having a KD ratio of 0.1 or more and less than 3 is denoted as C)

CCCN1C(=O)CN(C)C(=O)CNC(=O)[C@H]([C@@H](C)CC)NC(=O)[C@H](CC(C)C)N(C)C(=O)C[C@@H](C(=O)N2CCOCC2)NC(=O)[C@H](C2CCCC2)N(C)C(=O)C2(CCC2)NC(=O)[C@@H]2CCCN2C(=O)[C@H](CCc2ccc(C(F)(F)F)c(Cl)c2)NC(=O)CN(C)C(=O)[C@@H]1Cc1ccc(C(F)(F)F)cc1 [PP0326] ([NMeL]IG[Sar][NPrPhe(4-CF3)][Sar][hPhe(3-Cl-4-CF3)]P[Ac4c][NMeGly(cPent)]D-Morpholide; lactam N-11)
HRAS/KRAS (ratio of KD for GDP-bound HRAS wild-type to KD for KRAS) [1]: B (a compound having 3 or more and less than 10 is denoted as B) | NRAS/KRAS (ratio of KD for GDP-bound NRAS wild-type to KD for KRAS) [2]: B (a compound having 3 or more and less than 10 is denoted as B)

CCC[C@H]1C(=O)N[C@@H](C2CCCC2)C(=O)N(C)CC(=O)N(C)[C@H]2C/C=C\CCN(C2=O)[C@@H](Cc2ccc(C(F)(F)F)cc2)C(=O)N(C)CC(=O)N[C@@H](CCc2ccc(C(F)(F)F)c(Cl)c2)C(=O)N2CC3(CC3)C[C@H]2C(=O)NC2(CC(C)(C)C2)C(=O)N(C)[C@@H](CC(C)(C)C)C(=O)N(C)[C@H](C(=O)N(C)C)CC(=O)N1C [PP2981]
HRAS/KRAS (ratio of KD value with respect to GDP-bound HRAS wild-type protein to KD value with respect to KRAS) ([1]; GDP-bound wild-type proteins): A (a compound having 10 or more and less than 20 is denoted as A) | NRAS/KRAS (ratio of KD value with respect to GDP-bound NRAS wild-type protein to KD value with respect to KRAS) ([2]; GDP-bound wild-type proteins): AA (a compound having 20 or more is denoted as AA)
